Among the data in ChEMBL document CHEMBL4602696, “LMP2 Inhibitors as a Potential Treatment for Alzheimer's Disease” (J Med Chem, 2020) are IC50, inhibition and Activity values, retold here.

Structures are written as SMILES. The source made the active and inactive calls. The calls are words filed in the database; no cut-off is given here. A value given as a limit tells only on which side of the number the result lay.

A short description of series [1]: Inhibition of LMP7/Beta 5 subunit chymotrypsin-like activity in human RPM18226 cell lysates using Suc-LLVY-AMC as substrate after 1 hr by fluorescence based microplate reader analysis. The class given is cell-free. Conditions: rpmi-8226.
Series [2] concerns the target T1, Proteasome subunit beta type-9 (Homo sapiens) (UniProt P28065).
T1 sequence (whole entry): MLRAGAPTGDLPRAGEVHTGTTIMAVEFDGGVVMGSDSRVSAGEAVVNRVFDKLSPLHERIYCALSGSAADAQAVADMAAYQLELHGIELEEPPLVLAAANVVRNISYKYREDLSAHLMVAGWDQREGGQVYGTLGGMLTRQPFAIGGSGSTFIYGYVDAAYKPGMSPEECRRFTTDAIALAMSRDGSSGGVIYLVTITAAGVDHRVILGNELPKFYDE
Kind of series: Inhibition of immunoproteasome LMP2 subunit in human DLD1 cells over expressing ABCB1 at 3 uM using Ac-PAL-AMC as substrate incubated for 4 hrs in presence of reversin-121. The class given is cell-based. The note with it: DLD-1.

Series [3] addresses T1, Proteasome subunit beta type-9 (Homo sapiens). As to the kind of experiment: Inhibition of LMP2 subunit in human DLD1 cells over expressing ABCB1 at 1 uM using Ac-PAL-AMC as substrate incubated for 4 hrs. The note with it: DLD-1. The class given is cell-based.
In series [4] the target is T2, Proteasome subunit beta type-8 (Homo sapiens, UniProt P28062).
T2 sequence (P28062 whole entry): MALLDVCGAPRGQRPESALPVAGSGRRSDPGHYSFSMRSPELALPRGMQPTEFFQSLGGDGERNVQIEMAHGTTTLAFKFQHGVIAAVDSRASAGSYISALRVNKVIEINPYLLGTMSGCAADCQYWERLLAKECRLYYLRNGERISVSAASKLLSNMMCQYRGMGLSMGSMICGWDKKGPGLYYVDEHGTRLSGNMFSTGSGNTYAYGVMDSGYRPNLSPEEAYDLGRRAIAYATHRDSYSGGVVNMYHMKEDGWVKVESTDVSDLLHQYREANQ
Kind of series: Inhibition of LMP7 in human 20S immunoproteasome using Ac-ANW-AMC as substrate after 1 hr by fluorescence based microplate reader analysis.

Series [5] concerns the target T3, Proteasome subunit beta type-9 (Homo sapiens, UniProt P28065).
T3 sequence (P28065 whole entry): T1 sequence (whole entry)
As to the kind of experiment: Inhibition of LMP2 in human 20S immunoproteasome using Ac-PAL-AMC as substrate after 1 hr by fluorescence based microplate reader analysis.

The target in series [6] is T4, Proteasome Macropain subunit MB1 (Homo sapiens, UniProt P28074).
T4 sequence (P28074 whole entry): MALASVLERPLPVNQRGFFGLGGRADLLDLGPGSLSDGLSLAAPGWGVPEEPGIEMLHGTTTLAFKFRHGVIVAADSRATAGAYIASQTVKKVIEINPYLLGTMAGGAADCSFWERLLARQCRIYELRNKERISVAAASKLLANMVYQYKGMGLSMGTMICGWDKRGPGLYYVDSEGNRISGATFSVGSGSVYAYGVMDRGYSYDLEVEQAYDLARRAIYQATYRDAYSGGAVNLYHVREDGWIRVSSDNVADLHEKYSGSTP
As to the kind of experiment: Inhibition of Beta5 in human 20S […] usingAc-WLA-AMC as substrate after 1 hr by fluorescence based microplate reader analysis.

Series [7] in a line: Toxicity in transgenic Tg2576 ICR mouse at 10 mg/kg, iv administered twice per week for 3 weeks. The class given is organism-based. Conditions: in vivo, 504 h.
For series [8], the system named is BV-2. As to the kind of experiment: Antiinflammatory activity against mouse BV2 cells assessed as reduction in LPS-induced IL-1alpha release after 24 hrs by ELISA. The class given is functional, cell-based. Background: An ELISA detects its analyte on a solid surface through an enzyme-linked reagent.
Series [9] deals with T1, Proteasome subunit beta type-9 (Homo sapiens). As to the kind of experiment: Inhibition of LMP2 in human ARPE-19 cells assessed as suppression of TNFalpha-stimulated EMT by measuring vimentin expression after 24 hrs by immunofluorescence analysis. The class given is cell-based.
The subject of the next series is WI-38. Kind of series: Cytotoxicity against human WI38 cells up to 10 uM after 72 hrs by CellTiter 96 aqueous one solution reagent based assay. The class given is cell-based. Conditions: wi-38, 72 h.
The subject of series [10] is Mus musculus. As to the kind of experiment: Antialzheimer activity in transgenic Tg2576 ICR mouse at 10 mg/kg, iv administered twice per week for 3 weeks by Morris water maze test. The class given is functional, organism-based.
The test system of series [11] is Mus musculus. Kind of series: Antineuroinflammatory activity in APP transgenic Tg2576 mouse assessed as inhibition of retinal pigment epithelium degeneration at 10 mg/kg, iv administered twice per week for 3 weeks by immuno staining based confocal microscopic analysis relative to control. The class given is functional. The arrangement: scale not given: the % may be the effect or the level left.

Series [12] addresses T1, Proteasome subunit beta type-9 (Homo sapiens). Kind of series: Inhibition of LMP2 in human ARPE-19 cells assessed as suppression of TNFalpha-stimulated EMT by measuring E-cadherin expression after 24 hrs by immunofluorescence analysis. The class given is cell-based.
Another series has as its system RPMI-8226. As to the kind of experiment: Cytotoxicity against human RPM18226 cells up to 10 uM after 72 hrs by CellTiter 96 aqueous one solution reagent based assay. The note with it: rpmi-8226, 72 h. The class given is cell-based.
The test system of series [13] is Mus musculus. Kind of series: Antialzheimer activity in transgenic Tg2576 ICR mouse assessed as reduction in IL-1alpha level in serum at 10 mg/kg, iv administered twice per week for 3 weeks by ELISA. The class given is functional, organism-based.
The test system of series [14] is BV-2. As to the kind of experiment: Cytotoxicity against mouse BV2 cells up to 10 uM after 72 hrs by CellTiter 96 aqueous one solution reagent based assay. The class given is cell-based. The note with it: bv-2, 72 h.

Broadly, the IC50 is the concentration that gives 50% inhibition. Consider `C[C@]1(C(=O)[C@H](Cc2ccccc2)NC(=O)[C@H](CO)NC(=O)c2cccc(=O)[nH]2)CO1`, for which the IC50 in [1] is > 10 µM; in [4], > 10 µM; in series [5], 0.158 to 0.162 µM; in series [6], > 10 µM. Also, the inhibition result in series [2] is “Active”. In addition, the inhibition entry in series [3] was “inactive”.
`CC(C)C[C@H](NC(=O)[C@H](Cc1ccccc1)NC(=O)[C@@H]1CCCN1C(=O)CNC(=O)c1cnccn1)C(=O)[C@@]1(C)CO1`: the Activity result in [7] is recorded as “Non-Toxic”; in the series with WI-38 it was “Non-Toxic”; with Mus musculus [11] it was 100%; in the series on RPMI-8226 it was “Non-Toxic”; with BV-2 [14], “Non-Toxic”. The IC50 in series [1] is > 10 µM; in series [4], > 10 µM; in series [5], 0.07 to 0.0806 µM; in series [6], > 10 µM. Moreover, the result in the series with BV-2 [8], in the series with Mus musculus [10] and with Mus musculus [13] was Active. Besides, the inhibition entry in series [9], in [2], in series [3] and in [12] was “Active” each time.
